System: cataracts in rats
Experiment: Prevention or retardation of cataracts in galactose-fed rats
Format: in vivo, rat
Details: for suppression of the formation of nuclear cataracts: 30 days; for % of Total Eyes, + (vacuole) / % of Total Eyes, - (Normal) / % of Total Eyes, N (nuclear cataract) / % of Total Eyes, S (snowflake) / Number of Eyes Observed, + (vacuole) / Number of Eyes Observed, - (Normal) / Number of Eyes Observed, N (nuclear cataract) / Number of Eyes Observed, S (snowflake) / Number of Eyes Observed, ±: 30% galactose diet, A,C,E 0.0025%, B,D 0.01%
How it was run: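 Rats given test compound mixed into diet (by % of total feed weight; 0.01% designed to supply 20 mg/kg/day) ad libitum for thirty days after a two-day chow acclimatization, twelve animals per treatment. Eyes examined by handheld ophthalmoscope and/or penlight and each eye graded.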

C[S+]([O-])c1ccc2c(c1)C1(CCO2)NC(=O)NC1=O (stereo not shown) [D, spiro-(6-methylsulfinylchroman-4,4'-imidazolidine)-2',5'-dione]
16 eyes: Number of Eyes Observed, S (snowflake) (Study Day 28)
6 eyes: Number of Eyes Observed, - (Normal) (Study Day 6) | Number of Eyes Observed, ± (Study Day 8)
41.6%: % of Total Eyes, + (vacuole) (Study Day 6)
7 eyes: Number of Eyes Observed, S (snowflake) (Study Day 14) | Number of Eyes Observed, + (vacuole) (Study Day 20)
2 eyes: Number of Eyes Observed, ± (Study Day 3) | Number of Eyes Observed, ± (Study Day 4) | Number of Eyes Observed, S (snowflake) (Study Day 8) | Number of Eyes Observed, - (Normal) (Study Day 10) | Number of Eyes Observed, ± (Study Day 14) | Number of Eyes Observed, ± (Study Day 16) | Number of Eyes Observed, ± (Study Day 18) | Number of Eyes Observed, ± (Study Day 20) | Number of Eyes Observed, N (nuclear cataract) (Study Day 22) | Number of Eyes Observed, N (nuclear cataract) (Study Day 24) | Number of Eyes Observed, N (nuclear cataract) (Study Day 26)
4.2%: % of Total Eyes, N (nuclear cataract) (Study Day 20) | % of Total Eyes, + (vacuole) (Study Day 30)
20.8%: % of Total Eyes, S (snowflake) (Study Day 12) | % of Total Eyes, + (vacuole) (Study Day 22) | % of Total Eyes, + (vacuole) (Study Day 24)
33.3%: % of Total Eyes, + (vacuole) (Study Day 5) | % of Total Eyes, - (Normal) (Study Day 5)
17 eyes: Number of Eyes Observed, S (snowflake) (Study Day 22) | Number of Eyes Observed, S (snowflake) (Study Day 24)
25.0%: % of Total Eyes, - (Normal) (Study Day 6)
different (p<0.05) from control: time to vacuole formation, versus galactose control (0.01% in diet)
8 eyes: Number of Eyes Observed, + (vacuole) (Study Day 5) | Number of Eyes Observed, - (Normal) (Study Day 5) | Number of Eyes Observed, ± (Study Day 5) | Number of Eyes Observed, ± (Study Day 6)
91.7%: % of Total Eyes, - (Normal) (Study Day 3)
not different from each other: time to vacuole formation, 0.0025% methylthio versus 0.01% sulfinyl (methylthio 0.0025%, sulfinyl 0.01% in diet)
8.3%: % of Total Eyes, S (snowflake) (Study Day 8) | % of Total Eyes, - (Normal) (Study Day 10) | % of Total Eyes, N (nuclear cataract) (Study Day 22) | % of Total Eyes, N (nuclear cataract) (Study Day 24) | % of Total Eyes, N (nuclear cataract) (Study Day 26)
15 eyes: Number of Eyes Observed, + (vacuole) (Study Day 12) | Number of Eyes Observed, + (vacuole) (Study Day 14)
19 eyes: Number of Eyes Observed, S (snowflake) (Study Day 30)
5 eyes: Number of Eyes Observed, S (snowflake) (Study Day 12) | Number of Eyes Observed, + (vacuole) (Study Day 22) | Number of Eyes Observed, + (vacuole) (Study Day 24)
58.4%: % of Total Eyes, + (vacuole) (Study Day 10) | % of Total Eyes, S (snowflake) (Study Day 20)
70.8%: % of Total Eyes, S (snowflake) (Study Day 22) | % of Total Eyes, S (snowflake) (Study Day 24)
4 eyes: Number of Eyes Observed, + (vacuole) (Study Day 4) | Number of Eyes Observed, - (Normal) (Study Day 8) | Number of Eyes Observed, S (snowflake) (Study Day 10) | Number of Eyes Observed, ± (Study Day 10) | Number of Eyes Observed, ± (Study Day 12) | Number of Eyes Observed, + (vacuole) (Study Day 26) | Number of Eyes Observed, + (vacuole) (Study Day 28) | Number of Eyes Observed, N (nuclear cataract) (Study Day 28) | Number of Eyes Observed, N (nuclear cataract) (Study Day 30)
62.5%: % of Total Eyes, + (vacuole) (Study Day 12) | % of Total Eyes, + (vacuole) (Study Day 14)
10 eyes: Number of Eyes Observed, + (vacuole) (Study Day 6)
16.7%: % of Total Eyes, + (vacuole) (Study Day 4) | % of Total Eyes, - (Normal) (Study Day 8) | % of Total Eyes, S (snowflake) (Study Day 10) | % of Total Eyes, + (vacuole) (Study Day 26) | % of Total Eyes, + (vacuole) (Study Day 28) | % of Total Eyes, N (nuclear cataract) (Study Day 28) | % of Total Eyes, N (nuclear cataract) (Study Day 30)
54.2%: % of Total Eyes, + (vacuole) (Study Day 18)
37.5%: % of Total Eyes, S (snowflake) (Study Day 16) | % of Total Eyes, S (snowflake) (Study Day 18)
24 eyes: Number of Eyes Observed, - (Normal) (Study Day 2)
18 eyes: Number of Eyes Observed, - (Normal) (Study Day 4) | Number of Eyes Observed, S (snowflake) (Study Day 26)
75.0%: % of Total Eyes, - (Normal) (Study Day 4) | % of Total Eyes, S (snowflake) (Study Day 26)
14 eyes: Number of Eyes Observed, + (vacuole) (Study Day 10) | Number of Eyes Observed, S (snowflake) (Study Day 20)
0%: % of Total Eyes, + (vacuole) (Study Day 2) | % of Total Eyes, N (nuclear cataract) (Study Day 2) | % of Total Eyes, S (snowflake) (Study Day 2) | % of Total Eyes, + (vacuole) (Study Day 3) | % of Total Eyes, N (nuclear cataract) (Study Day 3) | % of Total Eyes, S (snowflake) (Study Day 3) | % of Total Eyes, N (nuclear cataract) (Study Day 4) | % of Total Eyes, S (snowflake) (Study Day 4) | % of Total Eyes, N (nuclear cataract) (Study Day 5) | % of Total Eyes, S (snowflake) (Study Day 5) | % of Total Eyes, N (nuclear cataract) (Study Day 6) | % of Total Eyes, S (snowflake) (Study Day 6) | % of Total Eyes, N (nuclear cataract) (Study Day 8) | % of Total Eyes, N (nuclear cataract) (Study Day 10) | % of Total Eyes, - (Normal) (Study Day 12) | % of Total Eyes, N (nuclear cataract) (Study Day 12) | % of Total Eyes, - (Normal) (Study Day 14) | % of Total Eyes, N (nuclear cataract) (Study Day 14) | % of Total Eyes, - (Normal) (Study Day 16) | % of Total Eyes, N (nuclear cataract) (Study Day 16) | % of Total Eyes, - (Normal) (Study Day 18) | % of Total Eyes, N (nuclear cataract) (Study Day 18) | % of Total Eyes, - (Normal) (Study Day 20) | % of Total Eyes, - (Normal) (Study Day 22) | % of Total Eyes, - (Normal) (Study Day 24) | % of Total Eyes, - (Normal) (Study Day 26) | % of Total Eyes, - (Normal) (Study Day 28) | % of Total Eyes, - (Normal) (Study Day 30)
50.0%: % of Total Eyes, + (vacuole) (Study Day 8)
66.7%: % of Total Eyes, S (snowflake) (Study Day 28)
45.8%: % of Total Eyes, + (vacuole) (Study Day 16)
greater than 80%: suppression of the formation of nuclear cataracts (0.0025% in diet) | suppression of the formation of nuclear cataracts (0.01% in diet)
13 eyes: Number of Eyes Observed, + (vacuole) (Study Day 16) | Number of Eyes Observed, + (vacuole) (Study Day 18)
22 eyes: Number of Eyes Observed, - (Normal) (Study Day 3)
1 eyes: Number of Eyes Observed, N (nuclear cataract) (Study Day 20) | Number of Eyes Observed, + (vacuole) (Study Day 30)
9 eyes: Number of Eyes Observed, S (snowflake) (Study Day 16) | Number of Eyes Observed, S (snowflake) (Study Day 18)
100.0%: % of Total Eyes, - (Normal) (Study Day 2)
12 eyes: Number of Eyes Observed, + (vacuole) (Study Day 8)
0 eyes: Number of Eyes Observed, + (vacuole) (Study Day 2) | Number of Eyes Observed, N (nuclear cataract) (Study Day 2) | Number of Eyes Observed, S (snowflake) (Study Day 2) | Number of Eyes Observed, ± (Study Day 2) | Number of Eyes Observed, + (vacuole) (Study Day 3) | Number of Eyes Observed, N (nuclear cataract) (Study Day 3) | Number of Eyes Observed, S (snowflake) (Study Day 3) | Number of Eyes Observed, N (nuclear cataract) (Study Day 4) | Number of Eyes Observed, S (snowflake) (Study Day 4) | Number of Eyes Observed, N (nuclear cataract) (Study Day 5) | Number of Eyes Observed, S (snowflake) (Study Day 5) | Number of Eyes Observed, N (nuclear cataract) (Study Day 6) | Number of Eyes Observed, S (snowflake) (Study Day 6) | Number of Eyes Observed, N (nuclear cataract) (Study Day 8) | Number of Eyes Observed, N (nuclear cataract) (Study Day 10) | Number of Eyes Observed, - (Normal) (Study Day 12) | Number of Eyes Observed, N (nuclear cataract) (Study Day 12) | Number of Eyes Observed, - (Normal) (Study Day 14) | Number of Eyes Observed, N (nuclear cataract) (Study Day 14) | Number of Eyes Observed, - (Normal) (Study Day 16) | Number of Eyes Observed, N (nuclear cataract) (Study Day 16) | Number of Eyes Observed, - (Normal) (Study Day 18) | Number of Eyes Observed, N (nuclear cataract) (Study Day 18) | Number of Eyes Observed, - (Normal) (Study Day 20) | Number of Eyes Observed, - (Normal) (Study Day 22) | Number of Eyes Observed, ± (Study Day 22) | Number of Eyes Observed, - (Normal) (Study Day 24) | Number of Eyes Observed, ± (Study Day 24) | Number of Eyes Observed, - (Normal) (Study Day 26) | Number of Eyes Observed, ± (Study Day 26) | Number of Eyes Observed, - (Normal) (Study Day 28) | Number of Eyes Observed, ± (Study Day 28) | Number of Eyes Observed, - (Normal) (Study Day 30) | Number of Eyes Observed, ± (Study Day 30)
79.2%: % of Total Eyes, S (snowflake) (Study Day 30)
29.2%: % of Total Eyes, S (snowflake) (Study Day 14) | % of Total Eyes, + (vacuole) (Study Day 20)
